Each structure is given as a SMILES string.

The subject of the assay is Colo205 human colon carcinoma cell line. Put plainly: In vitro tumor cell proliferation assay (MTS, CellTiter 96 Aqueous One Solution). It counts as cell-based. The conditions noted are these: COLO 205, Colo205 cells, 72 hours compound exposure, MTS absorbance at 490 nm, read-out: IC50 (concentration of test compound required to inhibit proliferation of 50% of the cells). Summed up: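 Proliferation measured as MTS tetrazolium reduction (490 nm) after 72 h compound exposure at 37 °C. Cells plated at 2000 per well in serum-supplemented RPMI-1640; duplicate 5-point dilutions topping out at 10-20 μM. Percent inhibition versus untreated and cell-free wells, IC50 derived by linear regression.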
Take `O=C(O)c1cn(-c2ccc(CNC3CCCCC3)cc2)c2c(Cl)c(N3CCN(c4ncccn4)CC3)c(F)cc2c1=O` [Example 189, 8-chloro-1-(4-cyclohexylaminomethyl-phenyl)-6-fluoro-4-oxo-7-(4-pyrimidin-2-yl-piperazin-1-yl)-1,4-dihydroquinoline-3-carboxylic acid]: the IC50 was under 0.5 µM. `O=C(O)c1cn(-c2ccc(CNC3CCCC3)cc2)c2c(OC(F)(F)Cl)c(N3CCN(c4ccc(F)cc4)CC3)c(F)cc2c1=O` [Example 181, 8-(chloro-difluoromethoxy)-1-(4-cyclopentylaminomethyl-phenyl)-6-fluoro-4-oxo-7-[4(4-fluorophenyl)piperazine-1-yl]-1,4-dihydroquinoline-3-carboxylic acid]: the IC50 is under 0.5 µM. On to `CON(C)Cc1ccc(-n2cc(C(=O)O)c(=O)c3cc(F)c(N4CCN(c5ncccc5C#N)CC4)c(Cl)c32)cc1` [Example 54, 8-chloro-7-[4-(3-cyanopyridin-2-yl)piperazin-1-yl]-6-fluoro-1-(4-{[methoxy(methyl)amino]methyl}phenyl)-4-oxo-1,4-dihydroquinoline-3-carboxylic acid], for which the IC50 was in the range of 2 to 20 µM. On to `Cc1cccc(N2CCN(c3c(F)cc4c(=O)c(C(=O)O)cn(-c5ccc(CN6CCCC6)cc5F)c4c3Cl)CC2)n1` [Example 175, 8-chloro-6-fluoro-1-(2-fluoro-4-pyrrolidin-1-ylmethyl-phenyl)-7-[4-(6-methylpyridine-2-yl)-piperazine-1-yl]-4-oxo-1,4-dihydroquinoline-3-carboxylic acid], for which the IC50 was under 0.5 µM. On to `O=C(O)c1cn(-c2ccc(CNC3CC3)cc2)c2c(Cl)c(N3CCN(c4ccccn4)CC3)c(F)cc2c1=O` [Example 59, 8-chloro-1-{4-[(cyclopropylamino)-methyl]phenyl}-6-fluoro-4-oxo-7-(4-pyridin-2-ylpiperazin-1-yl)-1,4-dihydroquinoline-3-carboxylic acid], for which the IC50 was under 0.5 µM. Consider `CCN(CC)Cc1ccc(-n2cc(C(=O)O)c(=O)c3cc(F)c(N4CCN(c5ccccc5C#N)CC4)c(OC(F)(F)Cl)c32)cc1` [Example 162, 8-[chloro(difluoro)methoxy]-7-[4-(2-cyanophenyl)piperazin-1-yl]-1-{4-[(diethylamino)methyl]phenyl}-6-fluoro-4-oxo-1,4-dihydroquinoline-3-carboxylic acid], for which the IC50 was under 0.5 µM. As to `CCN(CC)Cc1ccc(-n2cc(C(=O)O)c(=O)c3cc(F)c(N4CCN(c5ccccc5C#N)CC4)c(OC)c32)cc1` [Example 117, 7-[4-(2-cyanophenyl)piperazin-1-yl]-1-{4-[(diethylamino)methyl]phenyl}-6-fluoro-8-methoxy-4-oxo-1,4-dihydroquinoline-3-carboxylic acid], the IC50 is under 0.5 µM. To `Cc1cccc(N2CCN(c3c(F)cc4c(=O)c(C(=O)O)cn(-c5ccc(CN6CCCC6)cc5)c4c3OC(F)(F)F)CC2)n1` [Example 120, 6-fluoro-7-[4-(6-methylpyridin-2-yl)piperazin-1-yl]-4-oxo-1-[4-(pyrrolidin-1-ylmethyl)phenyl]-8-(trifluoromethoxy)-1,4-dihydroquinoline-3-carboxylic acid] belongs under 0.5 µM; to `O=C(O)c1cn(-c2cccc(CN3CCCCC3)c2)c2c(OC(F)(F)F)c(N3CCN(c4ccccn4)CC3)c(F)cc2c1=O` [Example 140, 6-fluoro-4-oxo-1-[3-(piperidin-1-yl-methyl)phenyl]-7-(4-pyridin-2-ylpiperazin-1-yl)-8-(trifluoromethoxy)-1,4-dihydroquinoline-3-carboxylic acid], 0.5 to 2 µM. For `CCN(CC)Cc1ccc(-n2cc(C(=O)O)c(=O)c3cc(F)c(N4CCN(c5cccc(Cl)c5)CC4)c(OC(F)(F)F)c32)cc1` [Example 136, 7-[4-(3-chlorophenyl)piperazin-1-yl]-1-{4-[(diethylamino)methyl]phenyl}-6-fluoro-4-oxo-8-(trifluoromethoxy)-1,4-dihydroquinoline-3-carboxylic acid] the value was under 0.5 µM; for `N#Cc1cccnc1N1CCN(c2c(F)cc3c(=O)c(C(=O)O)cn(-c4ccc(CN5CCCC5)nc4)c3c2Cl)CC1` [Example 35, 8-chloro-7-[4-(3-cyanopyridin-2-yl)piperazin-1-yl]-6-fluoro-4-oxo-1-[6-(pyrrolidin-1-ylmethyl)pyridin-3-yl]-1,4-dihydroquinoline-3-carboxylic acid], under 0.5 µM. `COc1c(N2CCN(c3ccc(C(F)(F)F)cc3)CC2)c(F)cc2c(=O)c(C(=O)O)cn(-c3ccc(CN4CCCC4)cc3)c12` [Example 82]: the IC50 was in the range of 2 to 20 µM.

On to `CCN(CC)Cc1ccc(-n2cc(C(=O)O)c(=O)c3cc(F)c(N4CCN(c5cccc(Cl)c5)CC4)c(OC)c32)cc1` [Example 115, 7-[4-(3-chlorophenyl)piperazin-1-yl]-1-{4-[(diethylamino)methyl]phenyl}-6-fluoro-8-methoxy-4-oxo-1,4-dihydroquinoline-3-carboxylic acid], for which the IC50 is under 0.5 µM. On to `O=C(O)c1cn(-c2ccc(CNC3CCC[C@@H]3O)cc2)c2c(Cl)c(N3CCN(c4ccccn4)CC3)c(F)cc2c1=O` (stereo in doubt) [Example 172, 8-chloro-6-fluoro-1{4-[(2-hydroxycyclopentylamino)-methyl]-phenyl}-4-oxo-7-(4-pyridin-2-yl-piperazine-1-yl)-1,4-dihydro-quinoline-3-carboxylic acid], for which the IC50 was under 0.5 µM. Take `CCN(CC)Cc1ccc(-n2cc(C(=O)O)c(=O)c3cc(F)c(N4CCN(c5ccccc5F)CC4)c(OC)c32)cc1` [Example 114, 1-{4-[(diethylamino)methyl]phenyl}-6-fluoro-7-[4-(2-fluorophenyl)piperazin-1-yl]-8-methoxy-4-oxo-1,4-dihydroquinoline-3-carboxylic acid]: the IC50 was under 0.5 µM. For `O=C(O)c1cn(-c2cccc(CN3CCCCC3)c2)c2c(Cl)c(N3CCN(c4ccccc4F)CC3)c(F)cc2c1=O` [Example 63, 8-chloro-6-fluoro-7-[4-(2-fluorophenyl)-piperazin-1-yl]-4-oxo-1-[3-(piperidin-1-ylmethyl)phenyl]-1,4-dihydroquinoline-3-carboxylic acid], the IC50 was in the range of 2 to 20 µM. As to `N#Cc1cccnc1N1CCN(c2c(F)cc3c(=O)c(C(=O)O)cn(-c4ccc(CN5CCCC5)cc4)c3c2OC(F)(F)Cl)CC1` [Example 149, 8-[chloro(difluoro)methoxy]-7-[4-(3-cyanopyridin-2-yl)piperazin-1-yl]-6-fluoro-4-oxo-1-[4-(pyrrolidin-1-ylmethyl)-phenyl]-1,4-dihydroquinoline-3-carboxylic acid], the IC50 was under 0.5 µM.

Consider `COc1c(N2CCN(c3ccccc3C#N)CC2)c(F)cc2c(=O)c(C(=O)O)cn(-c3ccc(CN4CCCC4)cc3)c12` [Example 81, 7-[4-(2-cyanophenyl)piperazin-1-yl]-6-fluoro-8-methoxy-4-oxo-1-[4-(pyrrolidin-1-ylmethyl)phenyl]-1,4-dihydroquinoline-3-carboxylic acid], for which the IC50 lay within 0.5 to 2 µM. With `COc1c(N2CCN(c3ccccn3)CC2)c(F)cc2c(=O)c(C(=O)O)cn(-c3ccc(CN4CCCC4)cc3)c12` [Example 72, 6-fluoro-8-methoxy-4-oxo-7-(4-pyridin-2-ylpiperazin-1-yl)-1-[4-(pyrrolidin-1-ylmethyl)phenyl]-1,4-dihydroquinoline-3-carboxylic acid], the IC50 is under 0.5 µM.

The values above are taken from patent US20070213339A1 (Bayer Pharmaceuticals Corporation, priority 2004, published 2007).
